These results are taken from patent EP0320095A2, “Bilirubin degrading enzymes” (HEALTH & RESEARCH SERVICES INC., priority 1987, dated 1989).

In assay [1] the test system is lime enzyme preparation. In words: Effects of common enzyme cofactors on the lime enzyme. The format is biochemical, Citrus aurantifolia. To be noted: 1 mM final concentration. As for the experimental part: (§1) For the orange enzyme preparation, however, 1mM ATP inhibited the activity by almost 50%.
For assay [2], the system named is orange enzyme preparation. In words: Effects of common enzyme cofactors on the orange enzyme. Format: biochemical, Citrus sinensis. To be noted: 1mM. How it is done: as §1
Assay [3] has as its system orange enzyme preparation. In words: Effect of common blood components on the orange enzyme reaction. The format is biochemical, Citrus sinensis. As for the experimental part: The bilirubin-degrading assay as described under (A) was carried out using an orange enzyme preparation obtained as described in Example 1. […] It is to be noted that the amount of enzyme used for removing interferences can be increased, if desired, to speed up the process. […]

Assay [4] has as its system lime enzyme preparation. The experiment in a line: Effect of common blood components on the lime enzyme reaction. Format: biochemical, Citrus aurantifolia. How it is done: The bilirubin-degrading assay as described in Example 2 was carried out using a lime enzyme preparation obtained as described in Example 1. Urate (at either 1.2 mM or 297 µM) and creatinine (88.4 and 176.8 µM) in a serum-based matrix had no effect on either the rate or extent of bilirubin degradation by the Citrus enzyme. […] Tests that are interfered severely by bilirubin include e.g. uric acid, cholesterol, glucose, triglycerides, to mention just a few (See for example, Spain and Wu, Clin. Chem. 32:518, 1986). Also, in practice, one will use much higher levels of the enzyme than those used here (5-10 µL/assay, representing about 0.1-0.2 mg protein). In such cases, the effects on initial rates will most likely be overcome or reduced to well within tolerable limits.

Take `NC(=O)c1ccc[n+]([C@@H]2O[C@H](COP(=O)([O-])OP(=O)(O)OC[C@H]3O[C@@H](n4cnc5c(N)ncnc54)[C@H](O)[C@@H]3O)[C@@H](O)[C@H]2O)c1` [NAD]: the “effect on the enzyme in the normal bilirubin-degrading assay” value (“effect on the enzyme” for short) in the assay with lime enzyme preparation [1] was “no demonstrable effect”. As for `Nc1ncnc2c1ncn2[C@@H]1O[C@H](COP(=O)(O)OP(=O)(O)OP(=O)(O)O)[C@@H](O)[C@H]1O` [ATP], the “effect on the enzyme” value with lime enzyme preparation [1] is on record as “no demonstrable effect”. The compound further returned an activity inhibited in assay [2] of approximately 50%. Regarding `NC(N)=O` [urea], in assay [3] (water-soluble serum analytes), the “effect on the reaction of the orange enzyme” value is “largely unaffected”. Regarding `Nc1ncnc2c1ncn2[C@@H]1O[C@H](COP(=O)(O)O)[C@@H](O)[C@H]1O` [AMP], the “effect on the enzyme” value with lime enzyme preparation [1] was “no demonstrable effect”. On the same count and under the same terms, for `Nc1ncnc2c1ncn2[C@@H]1O[C@H](COP(=O)(O)OP(=O)(O)O)[C@@H](O)[C@H]1O` [ADP] the value was “no demonstrable effect”. Turning to `Oc1nc(O)c2nc(O)[nH]c2n1` [Urate], the “effect on the rate or extent of bilirubin degradation” value with lime enzyme preparation [4] (at either 1.2 mM or 297 µM in a serum-based matrix) is given as “no effect”.

Regarding `NC(=O)C1=CN([C@@H]2O[C@H](COP(=O)(O)OP(=O)(O)OC[C@H]3O[C@@H](n4cnc5c(N)ncnc54)[C@H](O)[C@@H]3O)[C@@H](O)[C@H]2O)C=CC1` [NADH], in the assay with lime enzyme preparation [1], the “effect on the enzyme” value was “no demonstrable effect”. In the case of `CC(C)CCC[C@@H](C)[C@H]1CC[C@H]2[C@@H]3CC=C4C[C@@H](O)CC[C@]4(C)[C@H]3CC[C@]12C` [cholesterol], the “overall yield of the enzymic reaction, of the control value” in assay [3] (elevated cholesterol) is 90-95%. In addition, the initial rate retarded in assay [3] (elevated levels, for example at 10mM) is 10-20%. Moreover, the “effect on reaction extent” value with lime enzyme preparation [4] (30-40 min. incubation, serum-like matrix) is “not significantly affected”. Moreover, the “slow down of the initial rate of the enzymic reaction on unconjugated bilirubin” value with lime enzyme preparation [4] (elevated levels (cholesterol e.g. 11 mM or 400 mg/dL)) was 10-20%.
